Test results: ChEMBL document CHEMBL5385888, “Structure-based discovery of pyrazolamides as novel ERRγ inverse agonists” (Eur J Med Chem, 2023)
pIC50: −log10 of the molar value. The source made the active and inactive calls. The rule behind the calls is not given here.

target: T1, Estrogen-related receptor gamma (Mus musculus) (UniProt P62509); assay: Inverse agonist activity at Gal4-tagged mouse ERR-gamma LBD transfected in HEK293T cells co-expressing FR-luc assessed as inhibition of transcriptional activity at 10 uM incubated for 24 hrs by luciferase reporter gene assay; type: cell-based; conditions: not given
T1 sequence (whole entry): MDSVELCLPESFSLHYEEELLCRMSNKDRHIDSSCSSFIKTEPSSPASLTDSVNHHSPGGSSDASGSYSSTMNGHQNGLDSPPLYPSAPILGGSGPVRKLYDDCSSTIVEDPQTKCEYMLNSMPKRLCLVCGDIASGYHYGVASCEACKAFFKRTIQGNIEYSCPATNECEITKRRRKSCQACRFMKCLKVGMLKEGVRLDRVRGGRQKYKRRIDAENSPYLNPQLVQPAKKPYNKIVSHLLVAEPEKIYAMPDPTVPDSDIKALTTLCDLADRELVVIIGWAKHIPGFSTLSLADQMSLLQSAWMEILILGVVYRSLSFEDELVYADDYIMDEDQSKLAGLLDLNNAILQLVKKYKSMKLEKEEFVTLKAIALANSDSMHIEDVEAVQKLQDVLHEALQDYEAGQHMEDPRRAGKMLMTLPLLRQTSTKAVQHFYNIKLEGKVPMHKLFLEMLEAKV

SMILES | inhibition
COC(=O)c1ccc(-n2cc(C(=O)Nc3cc(N)cc(Oc4cccnc4)c3)c(-c3ccccc3)n2)cc1 | inactive
Nc1cc(NC(=O)c2cn(-c3ccc(C(=O)O)cc3)nc2-c2ccccc2)cc(Oc2cccnc2)c1 | inactive
COc1cccc(-c2nn(-c3ccccc3)cc2C(=O)Nc2cc(OCCN(C)C)cc(C(F)(F)F)c2)c1 | inactive
CCN(CC)C(=O)c1ccc(-n2cc(C(=O)Nc3cc(N)cc(Oc4cccnc4)c3)c(-c3ccccc3)n2)cc1 | inactive
Nc1cc(NC(=O)c2cn(-c3ccc(CO)cc3)nc2-c2ccccc2)cc(Oc2cccnc2)c1 | inactive
CN(C)CCCOc1cc(NC(=O)c2cn(-c3ccccc3)nc2-c2ccccc2)cc(C(F)(F)F)c1 | inactive
CN(C)CCCOc1cc(N)cc(NC(=O)c2cn(-c3ccccc3)nc2-c2ccccc2)c1 | inactive
COc1cccc(-c2nn(-c3ccccc3)cc2C(=O)Nc2cc(OCCCN(C)C)cc(C(F)(F)F)c2)c1 | inactive
CN(C)CCOc1cc(NC(=O)c2cn(-c3ccccc3)nc2-c2ccccc2)cc(C(F)(F)F)c1 | inactive

Continued, values first:

inhibition | SMILES
inactive | COc1cccc(-c2nn(-c3ccccc3)cc2C(=O)Nc2cc(N)cc(OCCN(C)C)c2)c1
inactive | COc1cccc(-c2nn(-c3ccccc3)cc2C(=O)Nc2cc(N)cc(OCCCN(C)C)c2)c1

same assay, conditions: filed as inverse agonist

Activity | SMILES
Active | Cc1ccc(-c2nn(-c3ccccc3)cc2C(=O)Nc2ccc(Oc3ccc(C(C)C)cc3)cc2)cc1

target: T2, Estrogen-related receptor gamma (Mus musculus, UniProt P62509); assay: Inverse agonist activity at Gal4-tagged mouse ERR-gamma LBD transfected in HEK293T cells co-expressing FR-luc assessed as inhibition of transcriptional activity incubated for 24 hrs by luciferase reporter gene assay; type: cell-based; conditions: not given
T2 sequence (P62509 whole entry): T1 sequence (whole entry)

SMILES | pIC50
O=C(Nc1cccc(Oc2cccnc2)c1)c1cn(-c2ccccc2)nc1-c1ccccc1 | 5.88
O=C(Nc1cc(Oc2cccnc2)cc(C(F)(F)F)c1)c1cn(-c2ccccc2)nc1-c1ccccc1 | 5.17

More lines, now with the values ahead:

pIC50 | SMILES
5.02 | COc1cc(C)ccc1Oc1ccc(NC(=O)c2cn(-c3ccccc3)nc2-c2ccccc2)cc1
4.87 | COc1cccc(Oc2cc(N)cc(NC(=O)c3cn(-c4ccccc4)nc3-c3ccccc3)c2)c1
5.26 | COc1cc(C)ccc1Oc1ccc(NC(=O)c2cn(-c3ccccc3)nc2-c2ccc(C)cc2)cc1
5.07 | COC(=O)c1cccc(Oc2cc(N)cc(NC(=O)c3cn(-c4ccccc4)nc3-c3ccccc3)c2)c1
4.98 | COc1ccc(-c2nn(-c3ccccc3)cc2C(=O)Nc2ccc(Oc3ccc(C)cc3OC)cc2)cc1OC
5.54 | COc1cccc(-c2nn(-c3ccccc3)cc2C(=O)Nc2cc(N)cc(Oc3cccnc3)c2)c1
5.00 | COc1ccc(-c2nn(-c3ccccc3)cc2C(=O)Nc2ccc(Oc3ccc(C(C)C)cc3)cc2)cc1OC
5.07 | COc1cccc(Oc2cc(N)cc(NC(=O)c3cn(-c4ccccc4)nc3-c3cccc(OC)c3)c2)c1
5.68 | COc1cccc(-c2nn(-c3ccccc3)cc2C(=O)Nc2cccc(Oc3cccnc3)c2)c1
